Source: US8394821B2, “Activated blood coagulation factor inhibitor” (Daiichi Sankyo Company, Limited, priority 2009, dated 2013)
≈ marks a conversion by molar mass, not a printed value. Like-named read-outs stand apart in the source and are kept apart here.

Experiments:
Type in all cases: physicochemical
[1] = Evaluation of crystal stability (storage at 25° C. at adjusted relative humidity); settings: for 0% RH Weight change (%) / 52% RH Weight change (%) / 93% RH Weight change (%): 25° C., 3-day storage
Protocol: Approximately 50 mg of each of various samples prepared in Example 1 was placed in a weighing bottle and stored at 25° C. in a desiccator whose relative humidity was adjusted to 0%, 52%, or 93% by a saturated salt solution method (silica gel, Mg(NO3)2, KNO3). […]

[2] = Evaluation of solubility (37° C., 30 min, HPLC); settings: thermodynamic from solid
Protocol: A supersaturated amount of each sample was placed in a 12-mL test tube, and 3 mL of a test solution (water, Japanese Pharmacopoeia disintegration test solution No. 1 (JP1), and Japanese Pharmacopoeia disintegration test solution No. 2 (JP2)) was added thereto. The test tube was incubated in a constant-temperature water bath at 37° C. The test tube was shaken using a vortex mixer for 30 seconds every 5 minutes. 30 minutes later, the supernatant was filtered through a membrane filter (pore size: 0.45 μm), appropriately diluted with eluent, and then analyzed by HPLC under the following conditions. The concentration was calculated from a calibration curve prepared before measurement.
Measurement conditions of HPLC (column: Waters Symmetry C18 4.6 mm×150 mm, eluent: 0.05 M phosphate buffer (pH 5.0): acetonitrile=70:30, flow rate: 1 mL/min., detection: UV 220 nm, column temperature: 40° C.)

[3] = Evaluation of chemical stability (dry heat, wet heat, light irradiation; HPLC residue); settings: for Residue (%, mean ± SD) Light irradiation (Lx · hr) 60 × 10^4: light irradiation 60 × 10^4 Lx · hr; for Residue (%, mean ± SD) Light irradiation (Lx · hr) 120 × 10^4: light irradiation 120 × 10^4 Lx · hr; for Residue (%, mean ± SD) 50° C., 0% RH 1 week later / Residue (%, mean ± SD) 50° C., 0% RH 2 week later: dry heat 50° C.; for Residue (%, mean ± SD) 50° C., 0% RH 2 week later / Residue (%, mean ± SD) 40° C., 75% RH 2 week later: 2 weeks; for Residue (%, mean ± SD) 40° C., 75% RH 1 week later / Residue (%, mean ± SD) 40° C., 75% RH 2 week later: wet heat 40° C.
Protocol: Approximately 2 mg of each of various samples prepared in Example 1 was weighed into an aluminum pan for thermal analysis and stored under dry heat (50° C., 0% RH) or wet heat (40° C., 75% RH) conditions. 1 week or 2 weeks later, each sample was collected, and the weight change was measured. Then, the whole amount was dissolved in 20 mL of eluent and analyzed by HPLC. For photolysis samples, approximately 10 mg of each sample was weighed into a weighing bottle and stored at 25° C. in a light irradiator. After irradiation at 600,000 or 1,200,000 Lx/hr, the sample was collected, and the weight change was measured. Then, the whole amount was dissolved in 100 mL of eluent and analyzed by HPLC. The residue proportion was determined from the ratio between the concentration of the sample solution calculated from a calibration curve prepared before measurement and the theoretical concentration calculated from weight measurement.
Measurement conditions of HPLC (column: Waters Symmetry C18 4.6 mm×150 mm, eluent: 0.05 M phosphate buffer (pH 5.0): acetonitrile=80:20, flow rate: 1 mL/min., detection: UV 220 nm, column temperature: 40° C.)

[4] = Moisture absorption and desorption characteristics (microbalance, water vapor adsorption apparatus); settings: 25° C., 10-90% RH
Protocol: Various samples prepared in Example 1 were separately placed in quartz holders and measured for their moisture absorption and desorption behavior under the following conditions using a microbalance.
Moisture absorption and desorption behavior measurement conditions (sample volume: approximately 20 mg, measurement range: 10-90% RH, measurement temperature: 25° C., variable: within 0.03%, varying length of time: 10 min., apparatus: VTI atmospheric pressure-type automatic water vapor adsorption apparatus SGA-100)

Q: With `CN1CCc2nc(C(=O)N[C@@H]3C[C@@H](C(=O)N(C)C)CC[C@@H]3NC(=O)C(=O)Nc3ccc(Cl)cn3)sc2C1` [Compound A, N^1-(5-chloropyridin-2-yl)-N^2-((1S,2R,4S)-4-[(dimethylamino)carbonyl]-2-{[(5-methyl-4,5,6,7-tetrahydrothiazolo[5,4-c]pyridin-2-yl)carbonyl]amino}cyclohexyl)ethanediamide] as the molecule, how does the “0% RH Weight change (%)” value [1] read?
A: The value was −0.32%.

Q: What about the “52% RH Weight change (%)” value [1] of the same molecule?
A: Its value is −0.22%.

Q: What about the “93% RH Weight change (%)” value [1] of the same molecule?
A: Its value is −0.04%.

Q: What about the solubility at 30 min ([2]; pH 1.2, simulated gastric fluid, Japanese Pharmacopoeia disintegration test solution No. 1, 37° C., read-out: JP1 (Solubility (μg/mL))) of the same molecule?
A: The solubility at 30 min was over 2000 µg/mL.

Q: And the solubility at 30 min ([2]; pH 6.8, aqueous buffer, Japanese Pharmacopoeia disintegration test solution No. 2, 37° C., read-out: JP2 (Solubility (μg/mL)))?
A: The solubility at 30 min was 49.8 µg/mL (≈ 90.9 µM).

Q: What about the solubility at 30 min ([2]; water, 37° C., read-out: Water (Solubility (μg/mL))) of the same molecule?
A: Its solubility at 30 min is 47.5 µg/mL (≈ 86.7 µM).

Q: What about the “Light irradiation Color” value ([3]; 25° C., after light irradiation) of the same molecule?
A: The value was “Changed”.

Q: What about the “Residue (%, mean ± SD) Light irradiation (Lx · hr) 60 × 10^4” value ([3]; 25° C.) of the same molecule?
A: The value was 92.0 ± 0.3%.

Q: What about the “Residue (%, mean ± SD) Light irradiation (Lx · hr) 120 × 10^4” value ([3]; 25° C.) of the same molecule?
A: The value was 82.8 ± 0.4%.

Q: What about the “Residue (%, mean ± SD) 50° C., 0% RH 1 week later” value [3] of the same molecule?
A: Its value is 99.3 ± 0.4%.

Q: And the “Residue (%, mean ± SD) 50° C., 0% RH 2 week later” value [3]?
A: The value was 97.5 ± 0.7%.

Q: And the “Residue (%, mean ± SD) 40° C., 75% RH 1 week later” value [3]?
A: Its value is 99.8 ± 0.3%.

Q: And the “Residue (%, mean ± SD) 40° C., 75% RH 2 week later” value [3]?
A: Its value is 98.7 ± 1.3%.

Q: Which “0% RH Weight change (%)” value [1] does the source give for `CN1CCc2nc(C(=O)N[C@@H]3C[C@@H](C(=O)N(C)C)CC[C@@H]3NC(=O)C(=O)Nc3ccc(Cl)cn3)sc2C1.O.O=C(O)C(O)C(O)C(=O)O` [compound II, N^1-(5-chloropyridin-2-yl)-N^2-((1S,2R,4S)-4-[(dimethylamino)carbonyl]-2-{[(5-methyl-4,5,6,7-tetrahydrothiazolo[5,4-c]pyridin-2-yl)carbonyl]amino}cyclohexyl)ethanediamide(+)-tartrate monohydrate] here?
A: Its value is −0.35%.

Q: And the “52% RH Weight change (%)” value [1]?
A: Its value is 0.05%.

Q: And the “93% RH Weight change (%)” value [1]?
A: The value was 0.31%.

Q: What about the “stability on storage: weight and crystal form (in words)” value ([1]; stored for 3 days under three standard relative humidity conditions at 25° C.) of the same molecule?
A: Its value is “stable without change both in weight and in crystal form”.

Q: And the “Residue (%, mean ± SD) Light irradiation (Lx · hr) 60 × 10^4” value ([3]; 25° C.)?
A: Its value is 98.2 ± 0.9%.

Q: And the “Residue (%, mean ± SD) Light irradiation (Lx · hr) 120 × 10^4” value ([3]; 25° C.)?
A: The value was 95.0 ± 1.2%.

Q: What about the “Residue (%, mean ± SD) 50° C., 0% RH 1 week later” value [3] of the same molecule?
A: Its value is 100.4 ± 0.7%.

Q: What about the “Residue (%, mean ± SD) 50° C., 0% RH 2 week later” value [3] of the same molecule?
A: The value was 100.1 ± 0.7%.

Q: What about the “Residue (%, mean ± SD) 40° C., 75% RH 1 week later” value [3] of the same molecule?
A: Its value is 100.1 ± 0.7%.

Q: What about the “Residue (%, mean ± SD) 40° C., 75% RH 2 week later” value [3] of the same molecule?
A: Its value is 100.1 ± 0.3%.

Q: What about the “moisture absorption and desorption characteristics/behavior (in words)” value [4] of the same molecule?
A: The value was “favorable moisture absorption and desorption characteristics”.
